# Data published in US8173133B2, “Acyl pseudodipeptides which carry a functionalized auxiliary arm” (OM Pharma, priority 1999, dated 2012).
# Like-named read-outs stand apart in the source and are kept apart here.
# Columns and labels:
# murine macrophage cells = experiment: nitric oxide production by murine macrophage cells (Griess); type: cell-based, C57/BL6 mice; settings: for Max concentration: concentration at maximum amplitude; for EC50 conc: concentration corresponding to 50% of maximum amplitude; for Min concentration: lowest concentration inducing a significant response
# Source text: Six-week old male C57/BL6 mice are killed by CO2 inhalation. The hip, femur, tibia and posterior appendage bones are removed. The bone marrow is extracted from the bone lumen by injecting Dulbecco's Modified Eagle Medium (DH medium) from the end portions which had been excised. The stem cells are washed and resuspended (approximate cell concentration 4000 cells/ml) in DH medium supplemented with 20% equine serum (SH) and 30% L929 cell supernatant. L929 is a murine fibroblast cell line the supernatant fluid of which is rich in growth factor for macrophage cells (M-CSF). The cell suspension is divided into Petri dishes which are incubated for 8 days in an incubator at 37° C. under 8% CO2 and a moisture saturated atmosphere.
# After 8 days, the stem cells have differentiated into mature macrophage cells. The macrophage cells are scraped off by rapid cooling, washed and resuspended in DH medium supplemented with 5% foetal calf serum (FCS), amino acids and antibiotics. The cell density is adjusted to 700 000 cells/ml.
# Products previously dissolved in DH medium supplemented with 5% FCS, amino acids and antibiotics are serially diluted directly in microtiter plates. The products are tested in triplicates and each microtiter plate comprises a negative control containing plain medium. The final volume in each well is 100 μl.
# 100 μl of cell suspension are added to diluted solutions of such products and the cells are incubated for 22 hours in an incubator at 37° C., under 8% CO2 and a moisture saturated atmosphere. At the end of the incubation period with the products, 100 μl of supernatant are withdrawn and the nitrite concentration is determined by running a Griess reaction.
# 100 μl of Griess reagent (5 mg/ml of sulfanilamide+0.5 mg/ml of N-(1-naphtylethylene diamine hydrochloride)) in 2.5% aq. phosphoric acid, are added to each well. The microtiter plates are read with a spectrophotometer at 562 nm wavelength against a reference sample at 690 nm. The nitrite concentration is proportional to nitric oxide content being formed. The nitrite content is determined based on a standard curve.
# The results are given as mean value±standard deviation and plotted as a dose versus response curve.
# From this dose versus response curve, 3 curve variables are computed:
# Max: maximum curve amplitude and corresponding concentration
# EC50: concentration corresponding to 50% of maximum amplitude
# Min: lowest concentration inducing a significant proliferation corresponding to the blank±3× standard deviation value
# Concentration values corresponding to EC50 and Min are determined from line segments joining different points on the curve.
# If the curve has no plateau phase but an ascending configuration for the highest concentration being tested, a “>” sign is shown before “Max” and “EC50” values.
# [1] = system: Limulus Amoebocyte Lysate
# [2] = system: human peripheral blood mononuclear cells; experiment: inhibition of E. coli LPS-induced α TNF production in human peripheral blood mononuclear cells; type: cell-based; settings: product 10 μg/ml; for 50% inhibition LPS: LPS concentration at which α TNF production is 50% of control; for max. Inhibition LPS: LPS concentration corresponding to maximum inhibition
# Procedure: Mononuclear cells of peripheral blood are recovered from buffy coats of 6 healthy donors. Such buffy coat cells are resuspended and mononuclear cells are isolated by centrifugation on a Ficoll-Paque gradient (Amersham Pharmacia). Purified mononuclear cells are resuspended into RPMI-1640 medium supplemented with 10% FCS, antibiotics, mercaptoethanol and L-glutamine. Cell concentration is adjusted to 2×10^6 viable cells/ml.
# Product mediated Inhibition is determined by preincubating those products with mononuclear cells, and adding, 1 hour later, serially diluted solutions of LPS capable of inducing α TFN production. […] E. coli LPS is serially diluted (10-fold dilution) to be in the range of 1 to 0.00001 μg/ml
# 50 μl of 10 μg/ml dilute product solutions in RPMI 1640 medium are dispensed into a microtiter plate. Each assay (10 μg/ml product concentration+dilute E. coli LPS) is run in triplicates and each microtiter plate includes a negative control comprised of plain medium. LPS-induced α TNF production (without inhibitor) is determined by adding E. coli LPS dilutions to RPMI medium.
# 100 μl of the cell suspension are added to each well containing dilutions of either product or control. Cells are incubated with the products for 1 hour in an incubator at 37° C., under 5% CO2 and a moisture saturated atmosphere.
# At the end of the pre-incubation period, 50 μl of serially diluted solutions of E. coli LPS are added. Incubation of mononuclear cells with the product and LPS is extended for 18 hours. At the end of the cell activation period, the microtiter plates are centrifuged, and the supernatants are pooled and frozen at −80° C. as aliquots until time of ELISA assay.
# Concentration of αTNF secreted by mononuclear cells is determined by chemiluminescent ELISA (QuantiGlo #QTAOO R&D kit). 4-fold dilutions of supernatant fluid are dispensed into each well of the microtiter plate to which anti-human αTNF antibodies are bound. The microtiter plate is incubated for 4 hours at room temperature. After washing, peroxidase-conjugated anti-human αTNF antibody is added. Following a 2 hour incubation period and a thorough washing, a chemiluminescent substrate is added and chemilunescence is read after 20 minutes. αTNF content in the supernatant fluid is determined with respect to a standard curve covering the 7000 to 0.7 pg/ml range.
# Inhibition is characterized by the E. coli LPS concentration which elicits 50% production of α TNF during co-incubation in comparison to a control including only RPMI. This concentration increases as product inhibition activity becomes stronger. Knowing inhibition values of α TNF production, this concentration is given by calculating 100-(αTNF production induced by product and LPS)/(αTNF production induced by LPS alone)*100. From these inhibition data, concentration is determined by linear regression along the line segment which joins 2 LPS dilutions giving approx. 50% inhibition.
# Product ability to inhibit α TNF production in mononuclear cells in response to LPS is further characterized by maximum inhibition. […] Results are calculated from a representative experience using all products.
SMILES,nitric oxide production (murine macrophage cells),Max concentration (murine macrophage cells),EC50 conc (murine macrophage cells),Min concentration (murine macrophage cells),LAL EU/mg of product [1],LAL ng of LPS equivalent per mg of product [1],max. Inhibition [2],50% inhibition LPS [2],max. Inhibition LPS [2],LAL ng of LPS equivalent per mg of product ([1]; 1 EU = 0.08 ng E. coli 055:B5 LPS),"LAL EU/mg of product ([1]; acyl-dipeptide-like compounds, diluted 0.1 mg/ml solution)"
"CCCCCCCCCCCC(=O)O[C@H](CCCCCCCCCCC)CC(=O)NC(CCOP(=O)(O)O)C(=O)NCCC[C@H](COC(=O)CCCCCN)NC(=O)C[C@H](O)CCCCCCCCCCC (mixture of isomers) [OM-197-MP-AC (R/S, R), (3RS,9R)-3-[(R)-3-dodecanoyloxytetradecanoylamino]-4oxo-5-aza-9-[(R)-3-hydroxytetradecanoylamino]-decan-10-ol 1-dihydrogen-phosphate(6-aminohexanoate)]",higher proliferation response as compared to positive control,> 100 µg/mL,> 10.69 µg/mL,1.04 µg/mL,0.14 EU/mg of product,0.011 ng of LPS equivalent per mg of product,100%,>1 µg/mL,0.00002 µg/mL,,
CCCCCCCCCCCC(=O)O[C@H](CCCCCCCCCCC)CC(=O)N[C@H](CC(=O)N[C@@H](CCCCN)C(=O)O)C(=O)NCCC[C@H](CO)NC(=O)C[C@H](O)CCCCCCCCCCC [OM-197-Lys],,40 µg/mL,2.23 µg/mL,< 0.47 µg/mL,3 EU/mg of product,0.24 ng of LPS equivalent per mg of product,100%,0.70 µg/mL,0.0055 µg/mL,,
"CCCCCCCCCCCC(=O)O[C@H](CCCCCCCCCCC)CC(=O)N[C@H](CC(=O)N[C@@H](CC(=O)O)C(=O)O)C(=O)NCCC[C@H](CO)NC(=O)C[C@H](O)CCCCCCCCCCC [OM-197-Asp, N—[(R)-3-dodecanoyloxytetradecanoyl]-D-aspartic acid, α-N-{(4R)-5-hydroxy-4-[(R)-3-hydroxytetradecanoylamino]-pentyl}Amide β-N-[(1S)-1,2-Dicarboxyethyl]Amide]",,51 µg/mL,0.95 µg/mL,0.086 µg/mL,<2.5 EU/mg of product,<0.2 ng of LPS equivalent per mg of product,100%,>1 µg/mL,0.00036 µg/mL,,
CCCCCCCCCCCC(=O)O[C@H](CCCCCCCCCCC)CC(=O)N[C@H](CC(=O)O)C(=O)NCCC[C@H](COC(=O)CCCCCNC(=O)CCC(=O)OC[C@H]1O[C@@H](n2cc(C)c(=O)[nH]c2=O)C[C@@H]1N=[N+]=[N-])NC(=O)C[C@H](O)CCCCCCCCCCC [OM-197-MC-AC-Succ-AZT],,> 100 µg/mL,> 74.89 µg/mL,55.98 µg/mL,,,100%,0.45 µg/mL,0.0005 µg/mL,0.11 ng of LPS equivalent per mg of product,1.34 EU/mg of product
"CCCCCCCCCCCC(=O)O[C@H](CCCCCCCCCCC)CC(=O)N[C@H](CC(=O)O)C(=O)NCCC[C@H](CO)NC(=O)C[C@H](O)CCCCCCCCCCC [OM-197-MC, N—[(R)-3-dodecanoyloxytetradecanoyl]-D-aspartic acid, α-N-{(4R)-5-hydroxy-4[(R)-3-hydroxytetradecanoylamino]-pentyl}amide]",,51 µg/mL,1.23 µg/mL,0.15 µg/mL,88.6 EU/mg of product,7.4 ng of LPS equivalent per mg of product,100%,1 µg/mL,0.0043 µg/mL,,
"CCCCCCCCCCCC(=O)O[C@H](CCCCCCCCCCC)CC(=O)N[C@H](CC(=O)O)C(=O)NCCC[C@H](COC(=O)CCCCC(O)CO)NC(=O)C[C@H](O)CCCCCCCCCCC (stereo partly drawn) [OM-197-MC-FV5, N—[(R)-3-dodecanoyloxytetradecanoylamino]-D-aspartic acid, α-N-{(4R)-5-hydroxy-4-[(R)-3-hydroxytetra-decanoylamino]-pentyl}amide 5-O-(6,7-dihydroxyheptanoate)]",,16 µg/mL,2.56 µg/mL,0.67 µg/mL,49.3 EU/mg of product,3.9 ng of LPS equivalent per mg of product,100%,>1 µg/mL,0.016 µg/mL,,
"CCCCCCCCCCCC(=O)O[C@H](CCCCCCCCCCC)CC(=O)NC(CCOP(=O)(O)O)C(=O)NCCCC(COC(=O)CCCCCO)NC(=O)C[C@H](O)CCCCCCCCCCC (stereo partly drawn) [OM-197-FV8, 3-[(R)-3-dodecanoyloxytetradecanoylamino]-4-oxo-5-aza-9-[(R)-3-hydroxytetradecanoylamino]-decan-1,10-diol 1-dihydrogenphosphate 10-(6-hydroxyhexanoate)]",,51 µg/mL,7.89 µg/mL,1.45 µg/mL,1820 EU/mg of product,145.6 ng of LPS equivalent per mg of product,100%,>1 µg/mL,0.0033 µg/mL,,
"CCCCCCCCCCCC(=O)O[C@H](CCCCCCCCCCC)CC(=O)N[C@H](CC(=O)O)C(=O)NCCC[C@H](COC(=O)CCCCCN)NC(=O)C[C@H](O)CCCCCCCCCCC [OM-197-MC-AC, N—[(R)-3-dodecanoyloxytetradecanoyl]-D-aspartic acid, α-N-{(4R)-5-(6-aminohexanoyloxy)-4-[(R)-3-hydroxytetradecanoylamino]pentyl}amide]",,25 µg/mL,4.91 µg/mL,0.91 µg/mL,,,100%,0.88 µg/mL,0.00003 µg/mL,,
